In patent US7635693B2, “Methods for preventing and treating cancer using N-thiolated β-lactam compounds and analogs thereof” (University of South Florida, priority 2002, dated 2009):
Several values for one entry are separate records, joined by “and”; a condition that tells them apart may be missing. Identical values can stand only once. Like-named read-outs stand apart in the source and are kept apart here.

Tests used:
[1] = system: Jurkat T cells; test: Flow cytometry cell cycle distribution and sub-G1 population, Jurkat T cells; format: cell-based, human; details: 50 μM; for increase in S phase population / sub-G1 apoptotic population: 5 hours
Experimental: Cell Death Differ 5:1062-75. At each time point, cells are harvested, counted, and washed twice with PBS. Cells (5×10^6) are suspended in 0.5 ml PBS, fixed in 5 ml of 70% ethanol for at least 2 h at −20° C., centrifuged, resuspended again in 1 ml of propidium iodide staining solution (50 μg propidium iodide, 100 units RNase A and 1 mg glucose per ml PBS), and incubated at room temperature for 30 minutes. The cells are then analyzed with FACScan (Becton Dickinson Immunocytometry, CA), ModFit LT and WinMDI V.2.8 cell cycle analysis software (Verity Software; Topsham, Me.). The cell cycle distribution is shown as the percentage of cells containing G1, S, G2, and M DNA judged by propidium iodide staining. The apoptotic population is determined as the percentage of cells with sub-G1 (<G1) DNA content.

[2] = system: PARP; test: PARP cleavage, Western blot, Jurkat T cells; format: cell-based, human; details: 50 μM, 8 hours
From the text: A library of β-lactam analogs was screened for their ability to induce apoptosis. […] This is followed by preparation of cell lysates and measurement of apoptosis-specific caspase-3 activation (by cell-free caspase-3 activity assay) and PARP cleavage (by Western blotting).

[3] = system: Jurkat T cells; test: TUNEL assay (DNA strand breaks), Jurkat T cells; format: cell-based, human; details: for TUNEL-positive cell population (DNA damage): 4 hour
Experimental: Terminal deoxynucleotidyl transferase-mediated UTP nick end labeling (TUNEL) was performed to determine the extent of DNA strand breaks. TUNEL assay was performed with an APO-Direct kit per the manufacturer's instructions. In brief, cells are fixed in 1% paraformaldehyde and ethanol at […] overnight and then permeabilized with Proteinase K. After permeabilization, Fluorescein conjugated dNTP's and TdT enzyme (Terminal Deoxynucleotidyl Transferase) are added to the cells. The TdT enzyme is then able to label free ends of DNA with Fluorescein conjugated dNTPs that could then be detected by flow cytometry.
The assay was performed following manufacturer's instruction using the APO-Direct kit. In brief, the harvested cells were fixed in 1% paraformaldehyde for 15 min on ice, washed with PBS, and then fixed again in 70% ethanol at −20° C. overnight. The cells were then incubated in DNA labeling solution (containing terminal deoxynucleotidyl transferase (TdT) enzyme, fluorescein-conjugated dUTP and reaction buffer) for 90 min at 37° C. After removing the DNA labeling solution by rinsing cells with Rinsing Buffer, the cells were incubated with the Propidium Iodide/RNase A solution, incubated for 30 min at room temperature in the dark, and then analyzed by flow cytometry within 3 h of staining.

[4] = system: Jurkat T cells; test: Morphological changes of treated Jurkat T cells; format: cell-based, human; details: 50 μM, 8 hours
[5] = system: caspase-3; test: Cell-free caspase-3 activity assay on extracts of treated Jurkat T cells; format: cell-based, human; details: 50 μM, 8 hours
Experimental: (§1) Briefly, a prepared protein extract (20 μg) is incubated in a buffer containing 50 mM Tris/pH 8.0 along with each respective caspase substrate at 20 μM in a 96 well plate. The reaction mixture is incubated at 37° C. for 2 h.
A library of β-lactam analogs was screened for their ability to induce apoptosis. The screening procedure is accomplished by treating human Jurkat T cells with each compound at 50 μM for 8 hours. This is followed by preparation of cell lysates and measurement of apoptosis-specific caspase-3 activation (by cell-free caspase-3 activity assay) and PARP cleavage (by Western blotting).

[6] = system: p38 MAP kinase; test: p38 phosphorylation, Western blot, Jurkat T cells; format: cell-based, human; details: for normalized increase in phosphorylation of p38 over control: FIG. 8D
From the text: It has been shown that multiple stimuli including DNA damaging agents induce apoptosis via activation of p38 MAP kinase (Kummer J L, et al., 1997, Apoptosis induced by withdrawal of trophic factors is mediated by p38 mitogen-activated protein kinase. J. Biol Chem 272:20490-4; Sanchez-Prieto R, et al., 2000, A role for the p38 mitogen-acitvated protein kinase pathway in the transcriptional activation of p53 on genotoxic stress by chemotherapeutic agents. Cancer Res 60:2464-72). […] The levels of Tyr-182 phosphorylated p38 protein were increased by 3-fold at 2 h and reached its maximum (˜9-fold) by 6 h (FIG. 8A). In has been shown that dual phosphorylation of p38 on Tyr-182 and Thr-180 activates this kinase (Raingeaud J, et al., 1995, Pro-inflammatory cytokines and environmental stress cause p38 mitogen-activated protein kinase activation by dual phosphorylation on tyrosine and threonine. J Biol Chem 270:7420-6). […] Therefore, lactam 1-induced DNA damage triggered activation of p38 before S population accumulation and apoptosis induction.

[7] = system: Jurkat T cells; format: cell-based, human; details: for non-viable cell population / cell death (trypan blue): 50 μM
Experimental: The trypan blue exclusion assay was performed by injecting 10 μl of cell suspension containing 0.2% trypan blue dye into a hemoicytometer and counting. Numbers of cells that absorbed the dye and those that excluded the dye are counted, from which the percentage of non-viable cell number to total cell number is calculated.

[8] = system: PARP; details: YT cells, 2, 10, 25, and 50 μM, 12 h
Experimental: Human Jurkat T cells and human prostate cancer LNCaP cells were cultured in RPMI 1640 medium, supplemented with 10% fetal bovine serum, 100 units/ml penicillin, and 100 μg/ml streptomycin. Human YT cells were cultured in RPMI 1640 medium supplemented with 1 mM MEM sodium pyruvate solution, 0.1 mM MEM non-essential amino acids solution, 10% fetal bovine serum, 100 units/ml penicillin, and 100 μg/ml streptomycin. All cell lines were maintained at 37° C. in a humidified incubator with an atmosphere of 5% CO2. […] Briefly, cells were harvested, washed with PBS and homogenized in a lysis buffer (50 mM Tris-HCl, pH 8.0, 5 mM EDTA, 150 mM NaCl, 0.5% NP-40, 0.5 mM phenylmethylsulfonyl fluoride, and 0.5 mM dithiothreitol) for 30 min at 4° C. Afterwards, the lysates were centrifuged at 12000×g for 15 min at 4° C. and the supernatants collected as whole-cell extracts. Equal amounts of protein extract (60 μg) were resolved by SDS-polyacrylamide gel electrophoresis and transferred to a nitrocellulose membrane (Schleicher & Schuell, Keene, N. H.) using a Semi-Dry Transfer System (Bio-Rad, Hercules, Calif.). The enhanced chemiluminescence Western blot analysis was then performed using specific antibodies to the proteins of interest.

[9] = system: LNCaP cells; details: LNCaP cells in soft agar, 50 μM, 21 day-incubation
Experimental: The soft agar assay was performed as described previously (Menter D G, Sabichi A L, Lippman S M., 2000, Selenium effects on prostate cell growth. Cancer Epidemiol Biomarkers Prev 9:1171-82) with a few modifications. In brief, in a six-well plate, a bottom feeder layer (0.6% agar) was prepared with DMEM media containing 10% fetal bovine serum, 100 units/ml penicillin, and 100 μg/ml streptomycin. […] Plates were incubated at 37° C. in 5% CO2 in a humidified incubator for three weeks. MTT (1 mg/ml) was added to each well and incubated overnight to allow complete formation of purple formazan crystals. The plates were then scanned and photographed, and the number of colonies was quantified by Quantity one v.4.0.3 software (Bio-Rad, Hercules, Calif.).

[10] = system: NK cells (YT line); details: YT cells, 2, 10, 25, and 50 μM, 24 h
Experimental: The trypan blue dye exclusion assay was performed by mixing 20 μl of cell suspension with 20 μl of 0.4% trypan blue dye before injecting into a hemocytometer and counting. The number of cells that absorbed the dye and those that exclude the dye were counted, from which the percentage of nonviable cell number to total cell number was calculated.

[11] = system: caspase-3; details: LNCaP cells, 48 h
Experimental: To measure cell-free caspase-3 activity, whole cell extracts (20-30 μg) from untreated or treated LNCaP cells were incubated with 20 μM of the fluorogenic substrate caspase-3/caspase-7 (Ac-DEVD-AMC) for 30 min at 37° C. in 100 μl of assay buffer (50 mM Tris, pH 8.0).

[12] = system: caspase-9; test: Cell-free caspase-9 activity in lysates of VP-16-treated Jurkat T cells, inhibitor present; format: biochemical, human; details: lysates of Jurkat T cells treated with 50 μM VP-16 for 5 hours
Experimental: as §1

[13] = system: caspase-8; test: Cell-free caspase-8 activity in lysates of VP-16-treated Jurkat T cells, inhibitor present; format: biochemical, human; details: lysates of Jurkat T cells treated with 50 μM VP-16 for 5 hours
Experimental: as §1

[14] = system: caspase-3; test: Cell-free caspase-3 activity in lysates of VP-16-treated Jurkat T cells, inhibitor present; format: biochemical, human; details: lysates of Jurkat T cells treated with 50 μM VP-16 for 5 hours
Experimental: as §1

## COC1C(=O)NC1c1ccccc1Cl (racemic) [lactam 2]
[1]
  increase in S phase population: did not induce accumulation of either S or sub-G1 populations
  sub-G1 apoptotic population: did not induce accumulation of either S or sub-G1 populations
[2]
  PARP cleavage: induces neither caspase-3 activation nor PARP cleavage
[3]; 50 μM
  TUNEL-positive cell population (DNA damage): did not cause any DNA damage
[4]
  morphological changes: no morphological changes
[5]
  caspase-3 activation: induces neither caspase-3 activation nor PARP cleavage

## CCSN1C(=O)C(OC)C1c1ccccc1Cl (racemic) [lactam 3]
[1]
  increase in S phase population: 15%
  sub-G1 apoptotic population: 10%
[2]
  decrease of PARP cleavage relative to lactam 1: ~50%
[3]; 50 μM
  TUNEL-positive cell population (DNA damage): 16%
[6]
  normalized increase in phosphorylation of p38 over control: 3.2 fold
[5]
  decrease of caspase-3 activity relative to lactam 1: ~50%

## CCCCSN1C(=O)C(OC)C1c1ccccc1Cl (racemic) [lactam 4]
[1]
  increase in S phase population: 8%
  sub-G1 apoptotic population: 2%
[2]
  decrease of PARP cleavage relative to lactam 1: ~65%
[3]; 50 μM
  TUNEL-positive cell population (DNA damage): 3%
[6]
  normalized increase in phosphorylation of p38 over control: 2.6 fold
[5]
  decrease of caspase-3 activity relative to lactam 1: ~65%

## COC1C(=O)N(SC)C1c1ccc(Cl)cc1 (racemic) [lactam 6]
[2]
  decrease of PARP cleavage relative to lactam 1: ~20%
[5]
  decrease of caspase-3 activity relative to lactam 1: ~20%

## COC1C(=O)N(SCc2ccccc2)C1c1ccccc1Cl (racemic) [lactam 7]
[2]
  decrease of PARP cleavage relative to lactam 1: ~70%
[5]
  decrease of caspase-3 activity relative to lactam 1: ~70%

## COC1C(=O)N(SC)C1c1ccccc1Br (racemic) [lactam 23]
[7]; 24 h
  non-viable cell population / cell death (trypan blue): 55%

## COC1C(=O)N(SC)C1c1ccccc1I (racemic) [lactam 46]
[7]; 24 h
  non-viable cell population / cell death (trypan blue): 60%

## COC1C(=O)N(SC)C1c1ccccc1[N+](=O)[O-] (racemic) [lactam 47]
[1]; 12 h
  sub-G1 population: 34%
[1]; 24 h
  sub-G1 population: 57%
[8]
  PARP cleavage: nor PARP cleavage
[9]
  inhibition of colony formation: ~100%
[7]; 10 μM, 24 h
  cell death (trypan blue): 25%
[7]; 25 μM, 3 h
  cell death (trypan blue): 15%
[7]; 25 μM, 6 h
  trypan blue-positive cells: 24%
[7]; 25 μM, 24 h
  cell death (trypan blue): 45%
[7]; 24 h
  non-viable cell population / cell death (trypan blue): ~94% and 80-90%
[7]; 24 h, trypan blue dose-response
  potency relative to lactam 1: ~2 fold
[3]; 50 μM, 12-24 h
  TUNEL-positive cells: 82-90%
[3]; 50 μM, 3 h
  cells with DNA strand breaks (TUNEL): ~70%
[10]
  cell death (trypan blue): neither cell death
[11]; 2 μM
  increase in caspase-3 activity over control: 2 fold
[11]; 10 μM
  increase in caspase-3 activity over control: 2.5 fold
[11]; 25 μM
  increase in caspase-3 activity over control: 4.2 fold

## COC1C(=O)N(SC)C1c1ccccc1 (racemic) [lactam 48]
[7]; 24 h
  non-viable cell population / cell death (trypan blue): ~25%

## COC1C(=O)N(SC)C1c1ccccc1F (racemic) [lactam 49]
[7]; 24 h
  non-viable cell population / cell death (trypan blue): ~35%

## CC(C)(C)OC(=O)NC(CC(=O)O)C(=O)CF [Boc-D-FMK, N-tert-butoxycarbonyl-Asp-fluoromethyl ketone]
[12]
  direct inhibition of caspase-9 activity: completely blocked
[3]; 4 hours, 50 μM lactam 1 plus PD 169316 at 30 μM or Boc-D-FMK at 50 μM
  TUNEL positivity on co-treatment with lactam 1: 97%
[6]; 4 hours, 50 μM lactam 1 plus inhibitor at 50 μM
  effect on lactam 1-induced p38 phosphorylation: not affected
[13]
  direct inhibition of caspase-8 activity: completely blocked
[14]
  direct inhibition of caspase-3 activity: completely blocked

## O=C1CC2(CCCCC2)CN1 [lactam 5]
[2]
  decrease of PARP cleavage relative to lactam 1: ~20%
[5]
  decrease of caspase-3 activity relative to lactam 1: ~20%
